Results from US6355799B1, “Substituted benzene compounds, process for their preparation, and herbicidal and defoliant compositions containing them” (ISK Americas Incorporated, priority 1997, dated 2002).

How the values were obtained:
Assay type in all cases: in vivo
[1] = tested on: barnyardgrass (Echinochloa crus-galli, ECHCG); assay: Post-emerge test, greenhouse herbicide activity screening; conditions: post-emerge, 14 days after application, rating scale 0-100
Description: (§1) A standard greenhouse herbicide activity screening system was used to evaluate the herbicidal efficacy and crop safety of these test compounds. Seven broadleaf weed species including redroot pigweed (Amaranthus retroflexus, AMARE, velvetleaf (Abutilon theophrasti, ABUTH), sicklepod (Cassia obtusifolia, CASOB), ivyleaf morningglory (Ipomoea hederacea, IPOHE), lambsquarters (Chenopodium album, CHEAL), common ragweed (Ambrosia artemisizfolia L., AMBEL), and cocklebur (Xanthium strumarium, XANST) were used as test species. Four grass weed species including green foxtail (Setaria viridis, SETVI), barnyardgrass (Echinochloa crus-galli, ECHCG), johnsongrass (Sorghum halepense, SORHA), and large crabgrass (Digitaria sanguinalis, DIGSA) were also used. In addition, three crop species, field corn (Zea mays L., var. Dekalb 535, CORN), soybean (Glycine max L., var. Pella 86, SOY), and is upland rice (Oryza sp., var. Tebonnet, RICE) were included.
(§2) All plants were grown in 10 cm square plastic pots which were filled with a sandy loam soil mix. For pre-emerge tests, seeds were planted one day prior to application of the test compounds. For post-emerge tests, seeds were planted 8-21 days prior to the test to allow emergence and good foliage development prior to application of the test substances. At the time of the post-emerge application, plants of all species were usually at the 2-3 leaf stage of development.
(§3) All test compounds Were dissolved in acetone and applied to the test units in a volume of 187 l /ha. Test materials were applied at rates ranging from 15 g ai/ha to 1000 g ai/ha using a track sprayer equipped with a TJ8001E even flow flat fan spray nozzle. Plants were arranged on a shelf so that the top of the canopy (post-emerge) or top of the soil surface (pre-emerge) was 40-45 cm below the nozzle. Pressurized air was used to force the test solution through the nozzle as it was mechanically advanced (via electrically driven chain drive) over the top of all test plants/pots. This application simulates a typical commercial field herbicide application.
(§4) In the post-emerge test, a commercial non-ionic surfactant was also included (0.25% v/v) to enhance wetting of the leaf surfaces of target plants. Immediately after application, test units of the pre-emerge applications were watered at the soil surface to incorporate the test materials. Subsequently, these test units were bottom-watered. Post-emerge test units were always bottom-watered.
(§5) At 14 days after application of the test materials, phytotoxicity ratings were recorded. A rating scale of 0-100 was used as previously described in Research Methods in Weed Science, 2nd edition, B. Truelove, Ed., Southern Weed Science Society, Auburn University, Auburn, Ala. 1977. Briefly, “0” corresponds to no damage and “100” corresponds to complete death of all plants in the test unit. This scale was used both to determine efficacy against weed species and damage to crop species. Herbicide activity data for various compounds of this invention, which are shown by compound No. in Tables 1-8, are shown in Tables 11 and 12.

[2] = tested on: sicklepod (Cassia obtusifolia, CASOB); assay: as above; conditions: post-emerge, 14 days after application, rating scale 0-100
Description: as §1, §2, §3, §4, §5

[3] = tested on: lambsquarters (Chenopodium album, CHEAL); assay: as above; conditions: post-emerge, 14 days after application, rating scale 0-100
Description: as §1, §2, §3, §4, §5

[4] = tested on: velvetleaf (Abutilon theophrasti, ABUTH); assay: as above; conditions: post-emerge, 14 days after application, rating scale 0-100
Description: as §1, §2, §3, §4, §5

[5] = tested on: ivyleaf morningglory (Ipomoea hederacea, IPOHE); assay: as above; conditions: post-emerge, 14 days after application, rating scale 0-100
Description: as §1, §2, §3, §4, §5

[6] = tested on: large crabgrass (Digitaria sanguinalis, DIGSA); assay: as above; conditions: post-emerge, 14 days after application, rating scale 0-100
Description: as §1, §2, §3, §4, §5

[7] = tested on: green foxtail (Setaria viridis, SETVI); assay: as above; conditions: post-emerge, 14 days after application, rating scale 0-100
Description: as §1, §2, §3, §4, §5

[8] = tested on: redroot pigweed (Amaranthus retroflexus, AMARE); assay: as above; conditions: post-emerge, 14 days after application, rating scale 0-100
Description: as §1, §2, §3, §4, §5

[9] = tested on: redroot pigweed (Amaranthus retroflexus, AMARE); assay: Pre-emerge test, greenhouse herbicide activity screening; conditions: pre-emerge, 14 days after application, scale 0-100
Summary of the method: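 Visual ratings on a 0-100 scale (0 no damage, 100 all plants dead) were taken at 14 days after treatment. Rates of 15-1000 g ai/ha in acetone, 187 l/ha, were sprayed onto soil one day after planting (pre-emerge) or onto 2-3 leaf plants with 0.25% v/v surfactant (post-emerge).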

[10] = tested on: upland rice (Oryza sp., var. Tebonnet, RICE); assay: Pre-emerge test, crop safety; conditions: pre-emerge, 14 days after application, scale 0-100
Description: as §1, §2, §3, §4, §5

[11] = tested on: field corn (Zea mays L., var. Dekalb 535, CORN); assay: Pre-emerge test, crop safety; conditions: pre-emerge, 14 days after application, scale 0-100
Description: as §1, §2, §3, §4, §5

[12] = tested on: upland rice (Oryza sp., var. Tebonnet, RICE); assay: Post-emerge test, crop safety; conditions: post-emerge, 14 days after application, rating scale 0-100
Description: as §1, §2, §3, §4, §5

[13] = tested on: field corn (Zea mays L., var. Dekalb 535, CORN); assay: Post-emerge test, crop safety; conditions: post-emerge, 14 days after application, rating scale 0-100
Description: as §1, §2, §3, §4, §5

[14] = tested on: barnyardgrass (Echinochloa crus-galli, ECHCG); assay: Pre-emerge test, greenhouse herbicide activity screening; conditions: pre-emerge, 14 days after application, scale 0-100
Description: as §1, §2, §3, §4, §5

[15] = tested on: sicklepod (Cassia obtusifolia, CASOB); assay: as above; conditions: pre-emerge, 14 days after application, scale 0-100
Description: as §1, §2, §3, §4, §5

[16] = tested on: lambsquarters (Chenopodium album, CHEAL); assay: as above; conditions: pre-emerge, 14 days after application, scale 0-100
Description: as §1, §2, §3, §4, §5

[17] = tested on: velvetleaf (Abutilon theophrasti, ABUTH); assay: as above; conditions: pre-emerge, 14 days after application, scale 0-100
Description: as §1, §2, §3, §4, §5

[18] = tested on: ivyleaf morningglory (Ipomoea hederacea, IPOHE); assay: as above; conditions: pre-emerge, 14 days after application, scale 0-100
Description: as §1, §2, §3, §4, §5

[19] = tested on: large crabgrass (Digitaria sanguinalis, DIGSA); assay: as above; conditions: pre-emerge, 14 days after application, scale 0-100
Description: as §1, §2, §3, §4, §5

[20] = tested on: green foxtail (Setaria viridis, SETVI); assay: as above; conditions: pre-emerge, 14 days after application, scale 0-100
Description: as §1, §2, §3, §4, §5

Cn1c(C(F)(F)F)cc(=O)n(-c2ccc(C#N)cc2NC(=O)C=Cc2ccccc2)c1=O [2-141]
ECHCG phytotoxicity rating ([1]; 63 g ai/ha): 10
ECHCG phytotoxicity rating ([1]; 250 g ai/ha): 30
CASOB phytotoxicity rating ([2]; 63 g ai/ha): 50
CASOB phytotoxicity rating ([2]; 250 g ai/ha): 95
CHEAL phytotoxicity rating ([3]; 63 g ai/ha): 95
CHEAL phytotoxicity rating ([3]; 250 g ai/ha): 100
ABUTH phytotoxicity rating ([4]; 63 g ai/ha): 100
ABUTH phytotoxicity rating ([4]; 250 g ai/ha): 100
IPOHE phytotoxicity rating ([5]; 63 g ai/ha): 100
IPOHE phytotoxicity rating ([5]; 250 g ai/ha): 95
DIGSA phytotoxicity rating ([6]; 63 g ai/ha): 10
DIGSA phytotoxicity rating ([6]; 250 g ai/ha): 30
SETVI phytotoxicity rating ([7]; 63 g ai/ha): 20
SETVI phytotoxicity rating ([7]; 250 g ai/ha): 40
AMARE phytotoxicity rating ([8]; 63 g ai/ha): 95
AMARE phytotoxicity rating ([8]; 250 g ai/ha): 95
phytotoxicity rating AMARE ([9]; 63 g ai/ha): 100
phytotoxicity rating AMARE ([9]; 250 g ai/ha): 100
phytotoxicity rating RICE (crop damage) ([10]; 63 g ai/ha): 30
phytotoxicity rating RICE (crop damage) ([10]; 250 g ai/ha): 70
phytotoxicity rating CORN (crop damage) ([11]; 63 g ai/ha): 0
phytotoxicity rating CORN (crop damage) ([11]; 250 g ai/ha): 45
RICE phytotoxicity rating (crop damage) ([12]; 63 g ai/ha): 15
RICE phytotoxicity rating (crop damage) ([12]; 250 g ai/ha): 65
CORN phytotoxicity rating (crop damage) ([13]; 63 g ai/ha): 5
CORN phytotoxicity rating (crop damage) ([13]; 250 g ai/ha): 10
phytotoxicity rating ECHCG ([14]; 63 g ai/ha): 30
phytotoxicity rating ECHCG ([14]; 250 g ai/ha): 95
phytotoxicity rating CASOB ([15]; 63 g ai/ha): 30
phytotoxicity rating CASOB ([15]; 250 g ai/ha): 90
phytotoxicity rating CHEAL ([16]; 63 g ai/ha): 100
phytotoxicity rating CHEAL ([16]; 250 g ai/ha): 100
phytotoxicity rating ABUTH ([17]; 63 g ai/ha): 100
phytotoxicity rating ABUTH ([17]; 250 g ai/ha): 100
phytotoxicity rating IPOHE ([18]; 63 g ai/ha): 40
phytotoxicity rating IPOHE ([18]; 250 g ai/ha): 100
phytotoxicity rating DIGSA ([19]; 63 g ai/ha): 35
phytotoxicity rating DIGSA ([19]; 250 g ai/ha): 70
phytotoxicity rating SETVI ([20]; 63 g ai/ha): 30
phytotoxicity rating SETVI ([20]; 250 g ai/ha): 70
